Read-outs that look alike come from different tables or passages of the source.
Target: human TRPV4 (Homo sapiens (Human), UniProt Q9HBA0)
Experiment: FLIPR assay for hTRPV4 expressed in BHK cells
Type: cell-based
Method: FLIPR Assay for hTRPV4 Expressed in BHK Cells:
TRPV4 channel activation results in an influx of divalent and monovalent cations including calcium. The resulting changes in intracellular calcium were monitored using a calcium specific fluorescent dye Fluo-4 (MDS Analytical Technologies). BHK/AC9 cells transduced with BacMam virus expressing the human TRPV4 gene at a MOI of 78 were plated in a 384 well poly-D lysine coated plate (15,000 cells/well in 50 μL culture medium containing DMEM/F12 with 15 mM HEPES, 10% FBS, 1% Penicillin-Streptomycin and 1% L-glutamine). Cells were incubated for 24 hours at 37° C. and 5% CO2. Culture medium was then aspirated using a Tecan plate-washer and replaced with 20 μL/well of dye loading buffer: HBSS, 500 μM Brilliant Black (MDS Analytical Technologies), and 2 μM Fluo-4 AM. Dye loaded plates were then incubated in the dark at room temperature for 1˜1.5 hours.

[1] = average in at least one set of experimental runs, inhibition of Agonist Compound-induced calcium signal, read-out: average IC50
[2] = inhibition of Agonist Compound-induced calcium signal (agonist at EC80), BHK/AC9 cells expressing human TRPV4, read-out: IC50

Chain of human TRPV4 (Q9HBA0 whole entry): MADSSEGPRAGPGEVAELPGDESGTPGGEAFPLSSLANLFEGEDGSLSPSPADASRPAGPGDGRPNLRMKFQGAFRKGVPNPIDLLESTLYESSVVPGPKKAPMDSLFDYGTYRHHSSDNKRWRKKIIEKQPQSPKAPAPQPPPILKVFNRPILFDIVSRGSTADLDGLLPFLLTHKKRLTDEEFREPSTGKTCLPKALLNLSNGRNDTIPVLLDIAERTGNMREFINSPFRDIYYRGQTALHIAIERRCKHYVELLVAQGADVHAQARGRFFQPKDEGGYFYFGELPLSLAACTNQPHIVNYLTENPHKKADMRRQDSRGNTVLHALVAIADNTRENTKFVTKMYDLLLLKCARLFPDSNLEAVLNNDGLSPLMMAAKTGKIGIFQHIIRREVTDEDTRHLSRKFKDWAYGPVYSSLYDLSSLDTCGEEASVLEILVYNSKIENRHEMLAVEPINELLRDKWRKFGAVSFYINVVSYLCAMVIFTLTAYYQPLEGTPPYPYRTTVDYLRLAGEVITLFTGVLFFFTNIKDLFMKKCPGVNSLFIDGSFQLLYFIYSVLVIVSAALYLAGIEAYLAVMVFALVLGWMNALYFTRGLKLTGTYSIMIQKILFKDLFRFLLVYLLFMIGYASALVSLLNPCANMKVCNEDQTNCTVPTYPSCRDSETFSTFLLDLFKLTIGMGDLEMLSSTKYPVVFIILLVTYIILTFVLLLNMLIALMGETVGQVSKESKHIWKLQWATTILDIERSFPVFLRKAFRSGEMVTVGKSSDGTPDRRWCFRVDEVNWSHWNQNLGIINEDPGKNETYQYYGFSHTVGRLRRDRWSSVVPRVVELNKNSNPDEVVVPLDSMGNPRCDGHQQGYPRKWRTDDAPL

| Structure (SMILES) | IC50 [1] [nM] | IC50 [2] [nM] |
| --- | --- | --- |
| N#Cc1ccc(C[C@H]2CN(S(=O)(=O)c3ccc(Cl)cn3)C[C@@]2(O)CN)cc1F [Example 7, 4-(((3S,4S)-4-(aminomethyl)-1-((5-chloropyridin-2-yl)sulfonyl)-4-hydroxypyrrolidin-3-yl)methyl)-2-fluorobenzonitrile] | 10 | 0.1 to 10 |
| N#Cc1ccc(C[C@H]2CN(S(=O)(=O)c3ccc(Cl)cc3Cl)C[C@@]2(O)CO)cc1F [Example 1, 4-(((3S,4R)-1-((2,4-dichlorophenyl)sulfonyl)-4-hydroxy-4-(hydroxymethyl)pyrrolidin-3-yl)methyl)-2-fluorobenzonitrile] | 8 | 0.1 to 10 |
| N#Cc1ccc(S(=O)(=O)N2C[C@H](Cc3ccc(C#N)c(F)c3)[C@](O)(CO)C2)c(Cl)c1 [Example 6, 4-(((3S,4R)-1-((2-chloro-4-cyanophenyl)sulfonyl)-4-hydroxy-4-(hydroxymethyl)pyrrolidin-3-yl)methyl)-2-fluorobenzonitrile] |  | 0.1 to 10 |
| N#Cc1ccc(C[C@H]2CN(S(=O)(=O)c3ccc(Cl)cn3)C[C@@]2(O)CO)c(OCC(F)(F)F)c1 [Example 3, 4-(((3S,4R)-1-((5-chloropyridin-2-yl)sulfonyl)-4-hydroxy-4-(hydroxymethyl)pyrrolidin-3-yl)methyl)-3-(2,2,2-trifluoroethoxy)benzonitrile] |  | 10 to 100 |
| N#Cc1ccc(C[C@H]2CN(S(=O)(=O)c3ccc(C(F)(F)F)cc3Cl)C[C@@]2(O)CO)cc1 [Example 2, 4-(((3S,4R)-1-((2-chloro-4-(trifluoromethyl)phenyl)sulfonyl)-4-hydroxy-4-(hydroxymethyl)pyrrolidin-3-yl)methyl)benzonitrile] |  | 10 to 100 |
| N#Cc1ccc(C[C@H]2CN(S(=O)(=O)c3ccc(C(F)(F)F)cc3C#N)C[C@@]2(O)CO)cc1F [Example 5, 4-(((3S,4R)-1-((2-cyano-4-(trifluoromethyl)phenyl)sulfonyl)-4-hydroxy-4-(hydroxymethyl)pyrrolidin-3-yl)methyl)-2-fluorobenzonitrile] |  | 0.1 to 10 |
| N#Cc1ccc(C[C@H]2CN(S(=O)(=O)c3ccc(Cl)cc3Cl)C[C@]2(O)CO)cc1F [Example 4, 4-(((3S,4S)-1-((2,4-dichlorophenyl)sulfonyl)-4-hydroxy-4-(hydroxymethyl)pyrrolidin-3-yl)methyl)-2-fluorobenzonitrile] |  | 10 to 100 |

Reference: US10590077B2, “TRPV4 antagonists” (GlaxoSmithKline Intellectual Property (No.2) Limited, priority 2016, dated 2020)
